The values that follow come from BindingDB's records for PubMed 7908055 (Case Western Reserve University, 1994).

The target of assay [1] is 5-hydroxytryptamine receptor 2A (Rattus norvegicus, UniProt P14842).
The target in assay [2] is T1, 5-hydroxytryptamine receptor 2C (Rattus norvegicus, UniProt P08909).
T1 sequence (P08909 whole entry): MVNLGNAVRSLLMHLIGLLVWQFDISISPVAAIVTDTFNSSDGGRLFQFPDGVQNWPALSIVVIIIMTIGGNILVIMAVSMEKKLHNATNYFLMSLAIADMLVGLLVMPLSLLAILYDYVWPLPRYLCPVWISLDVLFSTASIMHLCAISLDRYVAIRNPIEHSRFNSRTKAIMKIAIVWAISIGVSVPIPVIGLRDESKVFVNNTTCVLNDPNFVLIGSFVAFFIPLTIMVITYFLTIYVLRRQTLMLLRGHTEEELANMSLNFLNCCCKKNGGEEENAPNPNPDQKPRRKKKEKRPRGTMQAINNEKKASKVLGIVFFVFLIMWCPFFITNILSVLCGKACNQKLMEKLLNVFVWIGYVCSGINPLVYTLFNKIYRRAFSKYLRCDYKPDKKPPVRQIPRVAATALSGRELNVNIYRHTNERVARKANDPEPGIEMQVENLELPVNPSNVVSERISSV

The next assay has as its target D(2) dopamine receptor (Rattus norvegicus, UniProt P61169).

Chain of 5-hydroxytryptamine receptor 2A (P14842 whole entry): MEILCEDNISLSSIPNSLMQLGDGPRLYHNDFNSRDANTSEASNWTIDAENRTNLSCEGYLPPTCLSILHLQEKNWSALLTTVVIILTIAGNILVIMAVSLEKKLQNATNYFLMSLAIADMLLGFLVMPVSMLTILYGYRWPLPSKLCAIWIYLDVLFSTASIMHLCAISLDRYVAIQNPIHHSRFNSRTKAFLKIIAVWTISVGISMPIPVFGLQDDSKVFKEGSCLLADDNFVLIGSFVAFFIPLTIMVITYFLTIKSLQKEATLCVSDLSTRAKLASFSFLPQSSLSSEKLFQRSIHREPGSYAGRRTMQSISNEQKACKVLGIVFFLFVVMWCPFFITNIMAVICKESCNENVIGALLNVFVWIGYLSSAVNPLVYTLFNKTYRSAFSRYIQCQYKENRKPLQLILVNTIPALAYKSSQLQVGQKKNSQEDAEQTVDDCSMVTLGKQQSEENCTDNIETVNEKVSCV
Chain of D(2) dopamine receptor (P61169 whole entry): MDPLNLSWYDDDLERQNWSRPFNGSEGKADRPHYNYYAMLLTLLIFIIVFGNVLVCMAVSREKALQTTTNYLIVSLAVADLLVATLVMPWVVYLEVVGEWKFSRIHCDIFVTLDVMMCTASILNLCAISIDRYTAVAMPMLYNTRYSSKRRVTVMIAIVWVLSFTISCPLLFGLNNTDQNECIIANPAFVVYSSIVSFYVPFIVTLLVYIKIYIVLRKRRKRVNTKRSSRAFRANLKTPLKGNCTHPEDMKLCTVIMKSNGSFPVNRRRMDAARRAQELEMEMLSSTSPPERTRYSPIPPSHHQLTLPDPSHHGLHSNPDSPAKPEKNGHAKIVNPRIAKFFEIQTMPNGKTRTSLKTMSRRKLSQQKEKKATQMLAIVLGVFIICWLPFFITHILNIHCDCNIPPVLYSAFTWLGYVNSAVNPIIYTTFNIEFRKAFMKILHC

As for `CN1CCN(C2=Nc3ccccc3Sc3ccc(Cl)cc32)CC1` [2-chloro-11-(4-methylpiperazin-1-yl)dibenzo[b,f][1,4]thiazepine], in assay [1], the affinity, expressed as Ki, was 0.79 nM. With `CN(C)CC/C=C1\c2ccccc2Sc2ccc(Cl)cc21`, the affinity in assay [1], expressed as Ki, was 0.39 nM. On to `CCN1CCC[C@H]1CNC(=O)c1c(O)c(Cl)cc(Cl)c1OC` [3,5-Dichloro-N-(1-ethyl-pyrrolidin-2-ylmethyl)-2-hydroxy-6-methoxy-benzamide (raclopride)], for which the Ki in assay [1] and in assay [2] was 5010 nM in each case. For the compound `O=C1CC2(CCCC2)CC(=O)N1CCCCN1CCN(c2nsc3ccccc23)CC1` [TIOSPERONE], the Ki (commonly a dissociation constant, usually derived from enzyme kinetics or from competition with a known ligand) on D(2) dopamine receptor was found to be 0.5 nM; in assay [2], 10 nM. Compound `OC1(c2ccc(Cl)c(C(F)(F)F)c2)CCN(CCCC(c2ccc(F)cc2)c2ccc(F)cc2)CC1` [Penfluridol] showed a Ki in assay [1] of 63.1 nM. Turning to `CN1CCN(CC/C=C2/c3ccccc3Sc3ccc(S(=O)(=O)N(C)C)cc32)CC1` [MLS000028463], the Ki is 0.63 nM at D(2) dopamine receptor and 1580 nM in assay [2].

Regarding `CN1CCN(C2=Nc3ccccc3Cc3ccccc32)CC1`, the values for the Ki (in assay [1]; on D(2) dopamine receptor) were 12.6 nM and 501 nM, respectively.

In assay [2], `O=c1[nH]c2ccccc2n1C1CCN(CCCC(c2ccc(F)cc2)c2ccc(F)cc2)CC1` [1-(1-(4,4-bis(4-fluorophenyl)butyl)piperidin-4-yl)-1H-benzo[d]imidazol-2(3H)-one] yielded a Ki above 10000 nM. As to `CC1CN(CCCn2c3ccccc3c3ccccc32)CC(C)N1` (stereo unspecified) [9-[3-(3,5-dimethylpiperazin-1-yl)propyl]-9H-carbazole], the affinity in assay [1], expressed as Ki, was 5010 nM. For `CCc1c(C)[nH]c2c1C(=O)C(CN1CCOCC1)CC2` (stereo unspecified) [Moban], the Ki in assay [1] was determined as 501 nM; on D(2) dopamine receptor, 15.8 nM. For `CN1CCN(C2=Nc3cc(F)ccc3Cc3ccccc32)CC1`, the Ki is 6.3 nM in assay [1], 316 nM on D(2) dopamine receptor and 19.9 nM in assay [2]. `CC1CCN(CCCC(=O)c2ccc(F)cc2)CC1` [CAS_3575-80-2]: the figures for the Ki (on D(2) dopamine receptor; in assay [2]) were 200 nM and 1260 nM, respectively. Taken in the same sequence, the figures for `CN1CCN(C2=Nc3cscc3C(=CC#N)c3cscc32)CC1` [NSC_3086153] were 1580 nM and 63.1 nM. At D(2) dopamine receptor, `CN1CCCCC1CCN1c2ccccc2Sc2ccc([S+](C)[O-])cc21` (stereo unspecified) had a Ki of 7.94 nM. As for `CCNC(=O)N1CCN(CCCC(c2ccc(F)cc2)c2ccc(F)cc2)CC1`, the Ki in assay [1] was determined as 12.6 nM; at D(2) dopamine receptor, 501 nM; in assay [2] it was 1260 nM. In the case of `CN1CCN(CCCN2c3ccccc3Sc3ccc(Cl)cc32)CC1` [2-chloro-10-[3-(4-methylpiperazin-1-yl)propyl]phenothiazine;ethane-1,2-disulfonic acid], the Ki in assay [1] turned out to be 6.3 nM; in assay [2] it was 79.4 nM. On to `CN1CCN(C2=Cc3cc(Cl)ccc3C(=CC#N)c3ccccc32)CC1` [CAS_79781-95-6], for which the Ki came out at 0.63 nM in assay [1], 39.8 nM on D(2) dopamine receptor and 25.1 nM in assay [2].

Take `OCCN1CCN(CCCN2c3ccccc3Sc3ccc(Cl)cc32)CC1` [4-[3-(2-chlorophenothiazin-10-yl)propyl]-1-piperazineethanol]: the figures for the Ki (in assay [1]; at D(2) dopamine receptor; in assay [2]) were 2.51 nM, 0.63 nM and 50.1 nM, respectively. In turn, `CN1CCN(C2=Nc3ccccc3Oc3ccc(Cl)cc32)CC1` [13-chloro-10-(4-methylpiperazin-1-yl)-2-oxa-9-azatricyclo[9.4.0.0^{3,8}]pentadeca-1(11),3,5,7,9,12,14-heptaene] registered a Ki on D(2) dopamine receptor of 7.94 nM.

Consider `CC(=O)c1ccc2c(c1)N(CCCN1CCN(CCO)CC1)c1ccccc1S2` [CAS_5714-00-1], for which the Ki in assay [2] came to 1000 nM.
